The source of these data is paper PMC3031978 (Bioorganic & medicinal chemistry letters, 2010).

Data set [1] deals with T1, KOR (Homo sapiens, UniProt P41145). The data set is classed as binding.
The target in data set [2] is T1, KOR. The data set is classed as biochemical.
For data set [3] the following is noted: cited from earlier work.
Data set [4] addresses T1, KOR. It counts as binding. This is another data set of the same source.

The structures appear in SMILES notation. Entries after “also recorded” stand apart in the source; their conditions may differ. Bounds are passed on as bounds.

T1 sequence (P41145 whole entry): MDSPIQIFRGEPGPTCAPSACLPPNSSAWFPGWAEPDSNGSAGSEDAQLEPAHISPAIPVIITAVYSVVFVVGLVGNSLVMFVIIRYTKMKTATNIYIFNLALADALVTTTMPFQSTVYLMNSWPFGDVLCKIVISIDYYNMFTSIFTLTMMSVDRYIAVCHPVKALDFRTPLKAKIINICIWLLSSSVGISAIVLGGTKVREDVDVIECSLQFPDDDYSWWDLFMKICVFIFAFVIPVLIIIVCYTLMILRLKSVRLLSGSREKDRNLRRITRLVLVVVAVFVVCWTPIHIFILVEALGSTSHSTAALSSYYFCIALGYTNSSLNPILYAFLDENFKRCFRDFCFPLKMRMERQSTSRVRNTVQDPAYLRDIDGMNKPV

In the case of `COC(=O)[C@@H]1C[C@H](OC(=O)[C@@H](N)C(C)C)C(=O)[C@H]2[C@@]1(C)CC[C@H]1C(=O)O[C@H](c3ccoc3)C[C@]21C` [Analogue 12, 2-(2′-(S)-amino-3-methylbutanoate) salvinorin B], at KOR [1], the DOR/KOR is reported as >238 and the MOR/KOR was >238. Besides, at KOR [2], the “agonist activity at KOR (in words)” value was “full agonist”.

In the case of `CNCC(=O)O` [Sar], the “stability (in words)” value in data set [3] is given as “unstable”.

As to `COC(=O)[C@@H]1C[C@H](OC(=O)[C@H](C)N)C(=O)[C@H]2[C@@]1(C)CC[C@H]1C(=O)O[C@H](c3ccoc3)C[C@]21C` [Analogue 10], at KOR [1], the DOR/KOR was >2.64, the MOR/KOR was >2.64 and the “affinity at KOR (in words)” value is listed as “μM affinity; also recorded: in a μM range”. Also, the “displacement of [3H]diprenorphine at KOR (in words)” value on KOR [4] is “did not displace [^3H]diprenorphine; also recorded: did not displace KOR antagonist binding”.

Turning to `NCC(=O)O` [Gly], the “stability (in words)” value in data set [3] is listed as “unstable”.
